Like-named read-outs stand apart in the source and are kept apart here.
Columns and labels:
hTRPA1 = biological target: T1, hTRPA1 (Homo sapiens, UniProt O75762); experiment: cell-based; assay type: cell-based; settings: for activation of hTRPA1 whole-cell currents: 30 μM, calcium-free external solution; for activation of hTRPA1 whole-cell currents by NTE inhibitors: 100 μM
T1 construct: expressed in transfected cells; host or cells: HEK293, transient, EGFP plasmid co-transfected
Description: Human embryonic kidney 293 (HEK293) cells were cultured in DMEM containing 10% (vol/vol) heat-inactivated fetal bovine serum, 100 units ml^−1 penicillin–streptomycin and 2 mM L-glutamine at 37 °C in a humidity-controlled sterile incubator with 5% CO2. All cell culture reagents were purchased from Life Technologies. HEK293 cells were transfected transiently with the corresponding plasmids using lipofectamine 2000 (Life Technologies). Transfection efficiency was monitored by co-transfecting EGFP plasmid which codes for the enhanced green fluorescent protein. Electrophysiological recordings were performed between 24 and 36 h after transfection.
Whole-cell patch-clamp recordings in DRG neurons (small diameter, […]) and HEK293 cells were operated at room temperature (23–25 °C) using EPC-10 amplifier and Patch Master Software (HEKA). […] Currents were sampled at 10 kHz and low-pass filtered at 2.9 kHz. The internal solution was as follows (in mM): 140 CsCl, 10 HEPES, 5 EGTA, 0.1 CaCl2 and 1 MgCl2, with pH adjusted to 7.2 by CsOH and osmolarity 295–300 mOsm. The calcium-free external solution contained (in mM) 140 NaCl, 5 KCl, 0.5 EGTA, 1 MgCl2, 10 Glucose and 10 HEPES, with pH adjusted to 7.4 by NaOH and osmolarity 300–310 mOsm. The 0.5 mM EGTA was replaced by 2 mM CaCl2 for the recordings in DRG neurons. TRPA1 currents development was monitored with repetitive injections of 300 ms duration voltage ramps from −100 to +100 mV every 2 s and the holding potential was set to 0 mV for 50 ms, existing in both sides of the voltage ramp. To record inward currents in DRG neurons, we conducted voltage clamp at holding membrane potential of −70 mV. Solutions were switched using a gravity-fed continuous focal perfusion system.

mTRPA1 = mTRPA1 (Mus musculus, UniProt Q8BLA8); experiment: FDSS Ca2+-influx assay, HEK293 cells stably expressing mTRPA1; assay type: cell-based; parameters: expressed in transfected cells
Sequence of mTRPA1 (Q8BLA8 whole entry): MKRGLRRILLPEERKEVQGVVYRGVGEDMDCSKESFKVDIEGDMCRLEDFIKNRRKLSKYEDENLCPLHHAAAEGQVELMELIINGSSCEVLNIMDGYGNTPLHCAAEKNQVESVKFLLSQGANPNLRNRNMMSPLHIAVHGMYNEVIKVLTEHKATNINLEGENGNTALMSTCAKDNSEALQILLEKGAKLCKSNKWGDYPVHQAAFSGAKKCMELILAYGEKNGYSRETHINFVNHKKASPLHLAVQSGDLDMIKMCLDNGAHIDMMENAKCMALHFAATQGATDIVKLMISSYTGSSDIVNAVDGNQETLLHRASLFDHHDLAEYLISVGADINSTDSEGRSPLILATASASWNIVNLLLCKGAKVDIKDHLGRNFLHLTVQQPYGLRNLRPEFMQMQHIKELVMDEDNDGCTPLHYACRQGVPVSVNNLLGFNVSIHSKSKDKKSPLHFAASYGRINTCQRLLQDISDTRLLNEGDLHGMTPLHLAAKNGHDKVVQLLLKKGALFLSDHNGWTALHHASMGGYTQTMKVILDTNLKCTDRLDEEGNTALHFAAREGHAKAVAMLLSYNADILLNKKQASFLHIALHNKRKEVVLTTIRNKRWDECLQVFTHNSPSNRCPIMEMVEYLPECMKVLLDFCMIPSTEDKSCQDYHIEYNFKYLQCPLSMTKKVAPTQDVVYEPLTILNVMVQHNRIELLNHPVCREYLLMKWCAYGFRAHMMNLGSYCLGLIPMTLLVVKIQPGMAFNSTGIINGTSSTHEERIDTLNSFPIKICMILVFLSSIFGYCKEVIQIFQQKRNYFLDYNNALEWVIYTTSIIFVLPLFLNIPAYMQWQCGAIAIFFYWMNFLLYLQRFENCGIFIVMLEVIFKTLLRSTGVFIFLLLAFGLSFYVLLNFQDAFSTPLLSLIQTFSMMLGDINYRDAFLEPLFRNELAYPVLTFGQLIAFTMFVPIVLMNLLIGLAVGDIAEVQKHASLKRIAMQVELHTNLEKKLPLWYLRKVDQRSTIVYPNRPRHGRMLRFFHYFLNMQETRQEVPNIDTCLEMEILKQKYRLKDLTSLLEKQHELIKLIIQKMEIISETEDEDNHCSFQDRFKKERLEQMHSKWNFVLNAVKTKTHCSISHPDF
Description: Ca^2+-influx assays were carried out using HEK293 cells stably expressing mTRPA1 channels with an FDSS screening system (Hamamatsu, Japan). Before the start of the assay, HEK293-mTRPA1 cells were plated onto poly-D-Lysine (40 μg ml^−1) coated 96-well black clear bottom plate with the cell density of 300 000 cells per milliliter in DMEM supplemented with 10% (vol/vol) fetal bovine serum, 200 μg ml^−1 Hygromycin B, 15 μg ml^−1 Blasticidin S HCL and 0.3 μg ml^−1 doxycycline, which could induce the expression of mTRPA1. The 96-well plate was then put in sterile incubator overnight. The following day, Ca^2+ influx dye Fluo-4/AM stock was diluted to 2 μM with bath solution, and added (50 μl per well) in place of the culture medium. The plate was then incubated to load the Fluo-4/AM into cells for 60 min at 37 °C in dark environment. During the incubation, we prepared the compound plate (96-well) and the margin of plate was set as blank control due to the fringing effect. At the end of dye loading period, the remnant dye was removed using bath solution to wash the 96-well cell plate twice and then add 80 μl bath solution per well.

T1 sequence (O75762 whole entry): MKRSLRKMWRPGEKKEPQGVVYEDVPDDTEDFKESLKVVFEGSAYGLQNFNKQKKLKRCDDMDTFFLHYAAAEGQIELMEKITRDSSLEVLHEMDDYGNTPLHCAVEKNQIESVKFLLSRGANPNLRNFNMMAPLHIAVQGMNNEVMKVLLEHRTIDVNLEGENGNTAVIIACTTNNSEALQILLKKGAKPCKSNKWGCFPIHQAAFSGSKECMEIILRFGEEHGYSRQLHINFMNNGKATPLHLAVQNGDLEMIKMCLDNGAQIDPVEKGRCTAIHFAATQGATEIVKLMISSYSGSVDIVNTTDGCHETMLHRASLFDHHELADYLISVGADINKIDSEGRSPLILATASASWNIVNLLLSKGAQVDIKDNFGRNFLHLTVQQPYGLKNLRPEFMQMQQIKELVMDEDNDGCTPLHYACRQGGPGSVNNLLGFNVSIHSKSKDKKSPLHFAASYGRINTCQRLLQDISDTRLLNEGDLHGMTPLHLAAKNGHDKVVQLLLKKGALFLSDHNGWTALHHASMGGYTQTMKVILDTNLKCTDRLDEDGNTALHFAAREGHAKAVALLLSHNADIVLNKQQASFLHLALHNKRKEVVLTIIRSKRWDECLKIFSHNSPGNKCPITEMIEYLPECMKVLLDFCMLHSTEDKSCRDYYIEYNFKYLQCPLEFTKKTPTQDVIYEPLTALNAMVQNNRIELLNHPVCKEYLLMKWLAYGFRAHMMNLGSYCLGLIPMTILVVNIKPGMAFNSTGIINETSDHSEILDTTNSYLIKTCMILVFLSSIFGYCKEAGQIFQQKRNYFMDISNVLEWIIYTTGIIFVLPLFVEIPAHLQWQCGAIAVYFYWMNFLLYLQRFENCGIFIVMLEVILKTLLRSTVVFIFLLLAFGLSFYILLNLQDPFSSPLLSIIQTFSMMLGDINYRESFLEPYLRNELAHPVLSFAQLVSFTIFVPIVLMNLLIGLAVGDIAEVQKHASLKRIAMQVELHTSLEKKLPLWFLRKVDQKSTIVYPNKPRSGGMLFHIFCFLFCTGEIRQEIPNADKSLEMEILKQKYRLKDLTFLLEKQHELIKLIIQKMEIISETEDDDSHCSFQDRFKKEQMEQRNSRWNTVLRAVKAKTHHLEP

CCOP(=S)(OCC)O/N=C(\C#N)c1ccccc1 [phoxim]
activation of hTRPA1 whole-cell currents (hTRPA1): activated | EC50 (mTRPA1): 10 to 40 µM

O=S(=O)(Cl)Cc1ccccc1 [Phenylmethanesulfonyl chloride]
activation of hTRPA1 whole-cell currents by NTE inhibitors (hTRPA1): activated

COP(=S)(OC)Oc1ccc(SC)c(C)c1 [fenthion]
activation of hTRPA1 whole-cell currents (hTRPA1): activated | EC50 (mTRPA1): 10 to 40 µM

CCSC(=O)N(CC(C)C)CC(C)C [Butylate]
activation of hTRPA1 whole-cell currents by NTE inhibitors (hTRPA1): activated

COP(=O)(OC)OC(Br)C(Cl)(Cl)Br (centres unmarked) [naled]
activation of hTRPA1 whole-cell currents (hTRPA1): activated | EC50 (mTRPA1): 10 to 40 µM

CCOC(=O)OCC [Ethyl carbonate]
activation of hTRPA1 whole-cell currents by NTE inhibitors (hTRPA1): activated

COc1nn(CSP(=S)(OC)OC)c(=O)s1 [methidathion]
activation of hTRPA1 whole-cell currents (hTRPA1): activated | EC50 (mTRPA1): 10 to 40 µM

CCOP(=S)(OCC)Oc1nc(Cl)c(Cl)cc1Cl [chlorpyrifos]
activation of hTRPA1 whole-cell currents (hTRPA1): activated | EC50 (mTRPA1; HEK293 cells, change in [Ca2+]i, read-out: EC50, activation of mTRPA1): 10 to 40 µM

O=S(=O)(Cl)c1ccccc1 [Benzenesulfonyl chloride]
activation of hTRPA1 whole-cell currents by NTE inhibitors (hTRPA1): activated
